Measured values taken from patent publication US20150282506A1, “FLAVOUR ADDITIVES” (MARS, INCORPORATED, priority 2012, published 2015).

system: T1R1/T1R3 umami receptor; assay: In vitro screening of amino acids for ability to activate the T1R1/T1R3 receptor in the presence of 0.2 mM IMP; assay type: cell-based; conditions: FIG. 10

activation of the T1R1/T1R3 umami receptor	Structure (SMILES)
do not activate	N[C@@H](CC(=O)O)C(=O)O [aspartic acid]
do not activate	N[C@@H](CSSC[C@H](N)C(=O)O)C(=O)O [cystine]
do not activate	N[C@@H](CCC(=O)O)C(=O)O [glutamic acid]
do not activate	NC(=O)CC[C@H](N)C(=O)O [glutamine]
do not activate	CC[C@H](C)[C@H](N)C(=O)O [isoleucine]
do not activate	NCCC[C@H](N)C(=O)O [ornithine]
do not activate	O=C(O)[C@@H]1CCCN1 [proline]
do not activate	NCCS(=O)(=O)O [taurine]
do not activate	C[C@@H](O)[C@H](N)C(=O)O [threonine]
do not activate	CC(C)[C@H](N)C(=O)O [valine]

Structure (SMILES)	activation of the T1R1/T1R3 umami receptor
N=C(N)NCCC[C@H](N)C(=O)O [arginine]	do not activate
O=C(O)[C@@H]1C[C@@H](O)CN1 [hydroxyproline]	do not activate
NCCCC[C@H](N)C(=O)O [lysine]	do not activate
